Test results published in ChEMBL document CHEMBL1201862, “PubChem BioAssay data set” (2004).
One block for each compound: values may come before it. The source made the active and inactive calls.

Legend:
[1] = test system: INS1; assay: INS-1E survival protection against cytokine death – cell-based, luminescence, retest, dose response (AID 449756); assay type: functional; details: Rattus norvegicus;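 further: cell death triggered by IL-1 beta plus TNF-alpha plus IFN-gamma mixture; protective hits raise ATP signal compared with cytokine alone wells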
[2] = test system: BJ; assay: BJ-TERT-LT-ST fibroblast viability loss – cell-based, RAS-independent, luminescence, dose response (AID 1935); assay type: functional; details: Homo sapiens;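 further: BJ fibroblasts immortalized with TERT plus LT and ST oncogenes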
[3] = test system: BJ; assay: cells; assay type: functional, cell-based; details: Homo sapiens
[4] = DRD fibroblast viability loss – cell-based, non-viral oncogenic, luminescence, dose response (AID 1934); assay type: functional; details: Homo sapiens
[5] = test system: BJ; assay: BJ-TERT fibroblast viability loss – cell-based, RAS-independent, luminescence, dose response (AID 1933); assay type: functional; details: Homo sapiens
[6] = Trypanosoma cruzi growth suppression in host cells – NIH3T3 host cells, beta-gal luminescence, confirmation (AID 2044); assay type: functional, cell-based;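 further: intracellular parasites grown in NIH/3T3 mouse fibroblasts as host cells; luminescent beta-galactosidase reporter signal from transgenic T. cruzi replicating inside host cells; inhibitors lower the luminescence signal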
[7] = NIH3T3 cell viability loss – ATP luminescence, mouse fibroblasts, counter-screen, dose response (AID 2010); assay type: functional, cell-based;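 further: cells exposed to compound for about 90 hours before reading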
[8] = molecular target: Transitional endoplasmic reticulum ATPase (Homo sapiens, UniProt P55072, C522A); assay: C522A mutant p97 ATPase inhibitors, dose response, counter-screen for p97 inhibitor project, biochemical, luminescence (AID 1544)
[9] = molecular target: Transitional endoplasmic reticulum ATPase (Homo sapiens, UniProt P55072); assay: p97 ATPase inhibitors, dose response, biochemical (AID 1534)
[10] = molecular target: T1, Sentrin-specific protease 7 (Homo sapiens, UniProt Q9BQF6); assay type: functional;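 further: Luminescence-based dose-response confirmation of ultra-high-throughput screening hits, measuring inhibition of SENP7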
T1 sequence (Q9BQF6 whole entry): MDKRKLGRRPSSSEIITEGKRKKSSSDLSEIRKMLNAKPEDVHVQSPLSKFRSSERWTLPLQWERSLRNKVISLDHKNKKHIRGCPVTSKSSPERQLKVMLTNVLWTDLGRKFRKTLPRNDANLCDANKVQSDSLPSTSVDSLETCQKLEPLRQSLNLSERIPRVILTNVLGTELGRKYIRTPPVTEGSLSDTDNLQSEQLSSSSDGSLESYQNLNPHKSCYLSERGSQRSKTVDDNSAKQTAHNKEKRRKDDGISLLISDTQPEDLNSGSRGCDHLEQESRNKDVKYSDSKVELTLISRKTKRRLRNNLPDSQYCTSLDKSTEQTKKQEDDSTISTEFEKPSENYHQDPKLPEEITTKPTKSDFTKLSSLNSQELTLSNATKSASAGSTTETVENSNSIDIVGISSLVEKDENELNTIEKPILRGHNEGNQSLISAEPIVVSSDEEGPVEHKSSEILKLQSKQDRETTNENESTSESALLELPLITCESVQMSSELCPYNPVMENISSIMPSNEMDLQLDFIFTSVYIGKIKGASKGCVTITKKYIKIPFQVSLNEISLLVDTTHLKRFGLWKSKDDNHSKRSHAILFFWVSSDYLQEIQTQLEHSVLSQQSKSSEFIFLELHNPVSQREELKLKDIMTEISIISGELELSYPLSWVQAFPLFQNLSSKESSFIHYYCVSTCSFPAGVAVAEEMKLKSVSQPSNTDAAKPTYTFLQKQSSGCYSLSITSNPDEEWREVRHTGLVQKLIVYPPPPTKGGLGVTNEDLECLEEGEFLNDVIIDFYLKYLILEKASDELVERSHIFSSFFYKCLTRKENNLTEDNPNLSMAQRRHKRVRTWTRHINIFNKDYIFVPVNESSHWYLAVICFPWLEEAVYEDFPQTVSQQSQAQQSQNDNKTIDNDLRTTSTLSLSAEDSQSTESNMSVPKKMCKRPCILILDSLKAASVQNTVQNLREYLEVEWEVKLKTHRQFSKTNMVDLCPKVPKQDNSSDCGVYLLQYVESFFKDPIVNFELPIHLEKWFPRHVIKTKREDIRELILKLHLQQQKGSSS

[11] = molecular target: T2, Tyrosyl-DNA phosphodiesterase 2 (Homo sapiens, UniProt O95551); assay: potency against TDP2 phosphodiesterase activity – biochemical, epi absorbance, IC50, dose response (AID 743297)
T2 sequence (O95551 whole entry): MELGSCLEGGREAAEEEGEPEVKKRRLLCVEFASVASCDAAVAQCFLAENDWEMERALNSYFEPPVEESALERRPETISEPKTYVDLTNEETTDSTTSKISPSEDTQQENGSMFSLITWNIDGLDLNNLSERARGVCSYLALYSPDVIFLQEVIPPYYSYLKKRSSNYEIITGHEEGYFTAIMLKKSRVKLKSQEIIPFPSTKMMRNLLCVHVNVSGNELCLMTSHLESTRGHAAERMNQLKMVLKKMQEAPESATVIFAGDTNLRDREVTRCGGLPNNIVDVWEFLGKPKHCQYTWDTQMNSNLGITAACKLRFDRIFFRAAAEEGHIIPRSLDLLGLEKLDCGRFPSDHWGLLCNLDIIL

[12] = molecular target: T3, Sentrin-specific protease 6 (Homo sapiens, UniProt Q9GZR1); assay type: functional;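 further: Luminescence-based dose-response confirmatory assay of SENP6 inhibition, following up an ultra-high-throughput screen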
T3 sequence (Q9GZR1 whole entry): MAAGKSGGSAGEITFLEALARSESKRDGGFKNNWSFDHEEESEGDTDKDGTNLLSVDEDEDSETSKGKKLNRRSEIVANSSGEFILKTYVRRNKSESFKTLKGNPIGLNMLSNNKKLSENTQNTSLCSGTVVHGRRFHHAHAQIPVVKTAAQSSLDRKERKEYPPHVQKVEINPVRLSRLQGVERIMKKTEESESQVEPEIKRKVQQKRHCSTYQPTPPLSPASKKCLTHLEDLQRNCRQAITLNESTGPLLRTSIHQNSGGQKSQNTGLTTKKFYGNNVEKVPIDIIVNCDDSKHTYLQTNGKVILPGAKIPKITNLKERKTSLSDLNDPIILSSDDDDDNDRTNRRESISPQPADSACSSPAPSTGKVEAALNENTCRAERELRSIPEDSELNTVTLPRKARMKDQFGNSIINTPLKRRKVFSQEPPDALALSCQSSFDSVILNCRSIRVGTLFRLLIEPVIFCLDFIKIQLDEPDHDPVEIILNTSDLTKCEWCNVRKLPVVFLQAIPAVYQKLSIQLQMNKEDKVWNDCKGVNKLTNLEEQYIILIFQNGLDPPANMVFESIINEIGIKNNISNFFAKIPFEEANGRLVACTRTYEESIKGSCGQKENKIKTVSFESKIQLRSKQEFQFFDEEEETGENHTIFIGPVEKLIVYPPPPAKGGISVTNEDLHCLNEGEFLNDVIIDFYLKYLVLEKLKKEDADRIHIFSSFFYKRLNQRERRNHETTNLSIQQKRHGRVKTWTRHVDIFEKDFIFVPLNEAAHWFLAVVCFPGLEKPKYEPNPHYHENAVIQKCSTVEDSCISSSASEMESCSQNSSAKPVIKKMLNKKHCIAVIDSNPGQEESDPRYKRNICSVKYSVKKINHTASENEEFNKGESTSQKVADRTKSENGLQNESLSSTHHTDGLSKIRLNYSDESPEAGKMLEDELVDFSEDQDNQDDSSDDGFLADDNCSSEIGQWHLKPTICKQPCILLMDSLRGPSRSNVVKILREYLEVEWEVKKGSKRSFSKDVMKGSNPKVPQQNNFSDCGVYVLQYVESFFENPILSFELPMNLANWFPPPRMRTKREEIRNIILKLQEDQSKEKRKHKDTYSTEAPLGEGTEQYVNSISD

Transitional endoplasmic reticulum ATPase (Homo sapiens, UniProt P55072), sequence (P55072 whole entry): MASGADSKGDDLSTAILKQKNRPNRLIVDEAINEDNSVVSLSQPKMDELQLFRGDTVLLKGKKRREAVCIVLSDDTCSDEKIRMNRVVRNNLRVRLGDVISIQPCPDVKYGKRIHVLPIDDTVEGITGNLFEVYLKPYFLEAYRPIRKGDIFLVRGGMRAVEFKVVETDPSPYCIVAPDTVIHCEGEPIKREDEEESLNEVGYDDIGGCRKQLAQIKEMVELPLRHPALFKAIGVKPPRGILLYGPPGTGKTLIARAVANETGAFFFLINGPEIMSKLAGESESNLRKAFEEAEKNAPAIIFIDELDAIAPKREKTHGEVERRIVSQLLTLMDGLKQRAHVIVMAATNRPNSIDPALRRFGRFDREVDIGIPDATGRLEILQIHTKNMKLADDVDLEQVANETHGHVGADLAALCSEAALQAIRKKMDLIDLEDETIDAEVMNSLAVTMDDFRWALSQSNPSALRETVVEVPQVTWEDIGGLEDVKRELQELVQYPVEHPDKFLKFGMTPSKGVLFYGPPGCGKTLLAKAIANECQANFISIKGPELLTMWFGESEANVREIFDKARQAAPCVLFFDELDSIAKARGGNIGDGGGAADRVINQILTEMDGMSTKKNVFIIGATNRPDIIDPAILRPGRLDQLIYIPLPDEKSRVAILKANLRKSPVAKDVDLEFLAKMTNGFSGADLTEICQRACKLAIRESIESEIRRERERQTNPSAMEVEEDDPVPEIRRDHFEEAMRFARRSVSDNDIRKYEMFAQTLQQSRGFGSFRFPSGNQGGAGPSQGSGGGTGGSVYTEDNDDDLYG
Transitional endoplasmic reticulum ATPase (Homo sapiens, UniProt P55072, C522A), sequence (P55072 2-806 C522A limits assumed): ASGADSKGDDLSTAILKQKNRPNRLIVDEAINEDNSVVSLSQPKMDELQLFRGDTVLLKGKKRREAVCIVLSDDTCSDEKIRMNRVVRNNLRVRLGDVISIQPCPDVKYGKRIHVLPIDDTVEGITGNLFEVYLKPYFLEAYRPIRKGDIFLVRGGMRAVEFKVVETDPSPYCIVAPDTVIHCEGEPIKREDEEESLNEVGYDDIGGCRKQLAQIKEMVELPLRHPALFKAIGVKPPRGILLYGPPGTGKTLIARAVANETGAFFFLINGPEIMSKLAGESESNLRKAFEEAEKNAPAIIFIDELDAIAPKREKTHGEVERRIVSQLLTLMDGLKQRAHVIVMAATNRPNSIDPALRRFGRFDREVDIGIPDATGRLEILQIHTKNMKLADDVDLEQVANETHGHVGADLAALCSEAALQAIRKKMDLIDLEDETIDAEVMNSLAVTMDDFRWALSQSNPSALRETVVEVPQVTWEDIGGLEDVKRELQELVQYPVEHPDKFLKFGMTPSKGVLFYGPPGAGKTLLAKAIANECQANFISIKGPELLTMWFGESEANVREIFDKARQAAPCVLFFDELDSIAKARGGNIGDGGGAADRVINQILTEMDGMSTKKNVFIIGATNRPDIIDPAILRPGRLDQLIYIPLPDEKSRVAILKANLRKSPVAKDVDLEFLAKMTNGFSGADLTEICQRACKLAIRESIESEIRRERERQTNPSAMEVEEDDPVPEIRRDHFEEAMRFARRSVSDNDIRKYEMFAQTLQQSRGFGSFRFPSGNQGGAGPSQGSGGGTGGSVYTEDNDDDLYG

Compound: CCOC(=O)C1=C(c2ccc(OC)cc2)C(=O)c2ccccc2C1=O
- AC50 [1]: 2.2 µM (active)

Compound: COCCCNC(=O)c1ccc2c3c(onc13)-c1ccccc1C2=O
- EC50 [2]: 7.47 µM (active)
- EC50 [3]: > 150 µM (not active)
- EC50 [4]: 8.59 µM (active)
- EC50 [5]: 8.03 µM (inconclusive)

Compound: O=C1C=C(N(CCO)Cc2ccccc2)c2ccccc2C1=O
- EC50 [6]: > 30 µM (not active)
- EC50 [7]: 5.31 µM (active)

Compound: CCC(=O)OCCNc1cc(Sc2nccn2C)c2nonc2c1[N+](=O)[O-]
- EC50 [6]: 1.97 µM (active)
- EC50 [7]: 3.62 µM (active)

- IC50 [8]: > 50 µM (not active)
- IC50 [9]: > 50 µM (not active)
- IC50 [10]: 2.96 µM (active)
- IC50 [11]: > 4.76 µM (active)
- IC50 [12]: 0.986 µM (active)
Compound: CCCCn1c(NC(=O)c2ccccc2Cl)c(C#N)c2nc3ccccc3nc21

Compound: CCc1ccc(OCC(=O)N/N=C2\CC(=O)c3ccccc32)cc1
- IC50 [10]: > 100 µM (inactive)
- IC50 [12]: 4.06 µM (active)

Compound: O=C1C(=O)c2ccccc2-c2ccccc21 [9,10-PHENANTHRENEQUINONE]
- IC50 [8]: > 50 µM (not active)
- IC50 [9]: > 50 µM (not active)
- EC50 [2]: 1.63 µM (inconclusive)
- EC50 [3]: 5.99 µM (inconclusive)
- IC50 [11]: 1.91 µM (active)
- EC50 [4]: 4.95 µM (inconclusive)
- AC50 [1]: 1.01 µM (active)
- EC50 [5]: 1.96 µM (active)
